Test system: MV-4-11 cells
Assay: Gene expression microarray analysis (Affymetrix PrimeView) and GSEA
Format: cell-based, human
Set-up: RFU PODN (11730768_x_at) / Fold change /veh PODN (11730768_x_at) / RFU LINC00158 (11744669_a_at) / Fold change /veh LINC00158 (11744669_a_at) / RFU DUSP10 (11751237_a_at) / Fold change /veh DUSP10 (11751237_a_at) / RFU ID3 (11757404_x_at) / Fold change /veh ID3 (11757404_x_at) / RFU PLEKHG5 (11737974_s_at) / Fold change /veh PLEKHG5 (11737974_s_at) / RFU LRRC4B (11730491_at) / Fold change /veh LRRC4B (11730491_at) / RFU GIMAP4 (11747438_a_at) / Fold change /veh GIMAP4 (11747438_a_at) / RFU KRT8 (11758183_x_at) / Fold change /veh KRT8 (11758183_x_at) / RFU CNN1 (11734310_a_at) / Fold change /veh CNN1 (11734310_a_at) / RFU VPS37D (11726825_at) / Fold change /veh VPS37D (11726825_at) / RFU C10orf10 (11716522_x_at) / Fold change /veh C10orf10 (11716522_x_at) / RFU KIR2DL2 /// KIR2DL4 /// KIR2DL5A /// KIR2DL5B /// KIR2DS1 /// KIR2DS2 /// KIR2DS3 /// KIR2DS4 /// KIR3DL3 /// KIR3DL3 /// KIR3DS1 (11738374_at) / Fold change /veh KIR2DL2 /// KIR2DL4 /// KIR2DL5A /// KIR2DL5B /// KIR2DS1 /// KIR2DS2 /// KIR2DS3 /// KIR2DS4 /// KIR3DL3 /// KIR3DL3 /// KIR3DS1 (11738374_at) / RFU C1QL1 (11718748_at) / Fold change /veh C1QL1 (11718748_at) / RFU TMPRSS4 (11747572_a_at) / Fold change /veh TMPRSS4 (11747572_a_at) / RFU HAMP (11756126_x_at) / Fold change /veh HAMP (11756126_x_at) / RFU RNFT2 (11725882_a_at) / Fold change /veh RNFT2 (11725882_a_at) / RFU NR4A2 (11747474_a_at) / Fold change /veh NR4A2 (11747474_a_at) / RFU ABCC12 (11746883_a_at) / Fold change /veh ABCC12 (11746883_a_at) / RFU TMEM136 (11760407_x_at) / Fold change /veh TMEM136 (11760407_x_at) / RFU CLDN22 /// WWC2 (11732394_at) / Fold change /veh CLDN22 /// WWC2 (11732394_at) / RFU HLA-DPB1 (11760878_x_at) / Fold change /veh HLA-DPB1 (11760878_x_at) / RFU SPINT1 (11716480_a_at) / Fold change /veh SPINT1 (11716480_a_at) / RFU GAP43 (11754022_s_at) / Fold change /veh GAP43 (11754022_s_at) / RFU A4GNT (11735810_at) / Fold change /veh A4GNT (11735810_at) / RFU PRB3 (11715151_x_at) / Fold change /veh PRB3 (11715151_x_at) / RFU TUBB4B (11761932_at) / Fold change /veh TUBB4B (11761932_at) / RFU CAPN14 (11732068_a_at) / Fold change /veh CAPN14 (11732068_a_at) / RFU TMCC2 (11721928_a_at) / Fold change /veh TMCC2 (11721928_a_at) / RFU IRGQ (11745062_a_at) / Fold change /veh IRGQ (11745062_a_at) / RFU FAM174B (11720279_a_at) / Fold change /veh FAM174B (11720279_a_at) / RFU TMPRSS4 (11748680_a_at) / Fold change /veh TMPRSS4 (11748680_a_at) / RFU FAM212B (11763350_a_at) / Fold change /veh FAM212B (11763350_a_at) / RFU PLEKHG5 (11743358_a_at) / Fold change /veh PLEKHG5 (11743358_a_at) / RFU ZSCAN30 (11745921_a_at) / Fold change /veh ZSCAN30 (11745921_a_at) / RFU CMKLR1 (11741424_a_at) / Fold change /veh CMKLR1 (11741424_a_at) / RFU LOC101060620 /// MAPK8IP1 (11723275_at) / Fold change /veh LOC101060620 /// MAPK8IP1 (11723275_at) / RFU SPTSSB (11747773_x_at) / Fold change /veh SPTSSB (11747773_x_at) / RFU PRSS12 (11739890_at) / Fold change /veh PRSS12 (11739890_at) / RFU BIN1 (11741810_x_at) / Fold change /veh BIN1 (11741810_x_at) / RFU WNT11 (11732464_a_at) / Fold change /veh WNT11 (11732464_a_at) / RFU C10orf10 (11716521_a_at) / Fold change /veh C10orf10 (11716521_a_at) / RFU C5orf56 (11738089_at) / Fold change /veh C5orf56 (11738089_at) / RFU CYB561 (11721691_x_at) / Fold change /veh CYB561 (11721691_x_at) / RFU ANKRD19P (11752326_a_at) / Fold change /veh ANKRD19P (11752326_a_at) / RFU OR2T12 /// OR2T33 /// OR2T8 (11738714_s_at) / Fold change /veh OR2T12 /// OR2T33 /// OR2T8 (11738714_s_at) / RFU VCAN (11748164_a_at) / Fold change /veh VCAN (11748164_a_at) / RFU JSRP1 (11732532_at) / Fold change /veh JSRP1 (11732532_at) / RFU KRTAP10-11 (11738290_x_at) / Fold change /veh KRTAP10-11 (11738290_x_at) / RFU MYO3A (11730013_a_at) / Fold change /veh MYO3A (11730013_a_at) / RFU EBF3 (11725865_a_at) / Fold change /veh EBF3 (11725865_a_at) / RFU CAMK2N1 (11719241_x_at) / Fold change /veh CAMK2N1 (11719241_x_at) / RFU C5orf56 (11738088_a_at) / Fold change /veh C5orf56 (11738088_a_at) / RFU OLFML3 (11715873_a_at) / Fold change /veh OLFML3 (11715873_a_at) / RFU LOC100653217 /// NTM (11731650_a_at) / Fold change /veh LOC100653217 /// NTM (11731650_a_at) / RFU MAPK11 (11762145_a_at) / Fold change /veh MAPK11 (11762145_a_at) / RFU FIZ1 (11724087_x_at) / Fold change /veh FIZ1 (11724087_x_at) / RFU OASL (11726364_x_at) / Fold change /veh OASL (11726364_x_at) / RFU SOX15 (11748057_x_at) / Fold change /veh SOX15 (11748057_x_at) / RFU CD79A (11719716_a_at) / Fold change /veh CD79A (11719716_a_at) / RFU HIST1H1D (11736915_at) / Fold change /veh HIST1H1D (11736915_at) / RFU CASKIN2 (11723855_a_at) / Fold change /veh CASKIN2 (11723855_a_at) / RFU LOC730098 (11760151_x_at) / Fold change /veh LOC730098 (11760151_x_at) / RFU OR4N2 (11742367_at) / Fold change /veh OR4N2 (11742367_at) / RFU PRRT2 (11749266_a_at) / Fold change /veh PRRT2 (11749266_a_at) / RFU SNX32 (11753110_a_at) / Fold change /veh SNX32 (11753110_a_at) / RFU CDHR5 (11726645_a_at) / Fold change /veh CDHR5 (11726645_a_at) / RFU RCAN1 (11760418_a_at) / Fold change /veh RCAN1 (11760418_a_at) / RFU FAM167A (11723789_a_at) / Fold change /veh FAM167A (11723789_a_at) / RFU FAM26E (11764081_at) / Fold change /veh FAM26E (11764081_at) / RFU ISYNA1 (11749810_s_at) / Fold change /veh ISYNA1 (11749810_s_at) / RFU ACY1 (11761880_at) / Fold change /veh ACY1 (11761880_at) / RFU 11764098_at / Fold change /veh 11764098_at / RFU SAMD14 (11745864_x_at) / Fold change /veh SAMD14 (11745864_x_at) / RFU NPB (11741838_a_at) / Fold change /veh NPB (11741838_a_at) / RFU TMPRSS6 (11731388_a_at) / Fold change /veh TMPRSS6 (11731388_a_at) / RFU KRTAP10-2 (11738614_at) / Fold change /veh KRTAP10-2 (11738614_at) / RFU ARHGAP8 /// PRR5-ARHGAP8 (11727945_x_at) / Fold change /veh ARHGAP8 /// PRR5-ARHGAP8 (11727945_x_at) / RFU KRTAP5-7 /// NADSYN1 (11734609_at) / Fold change /veh KRTAP5-7 /// NADSYN1 (11734609_at) / RFU RASL12 (11751679_a_at) / Fold change /veh RASL12 (11751679_a_at) / RFU CDKN2B (11736163_a_at) / Fold change /veh CDKN2B (11736163_a_at) / RFU PRF1 (11729649_at) / Fold change /veh PRF1 (11729649_at) / RFU, ZNF638 /// ZNF638-IT1 / Fold change vs veh, ZNF638 /// ZNF638-IT1 / RFU, PANK3 / Fold change vs veh, PANK3 / RFU, SH3YL1 / Fold change vs veh, SH3YL1 / RFU, ZEB2 / Fold change vs veh, ZEB2 / RFU, NRIP1 / Fold change vs veh, NRIP1 / RFU, PTTG1IP / Fold change vs veh, PTTG1IP / RFU, CAPN2 / Fold change vs veh, CAPN2 / RFU, MED14 / Fold change vs veh, MED14 / RFU, SNORA58 / Fold change vs veh, SNORA58 / RFU, C1orf63 / Fold change vs veh, C1orf63 / RFU, LRRFIP1 / Fold change vs veh, LRRFIP1 / RFU, NDUFAF7 / Fold change vs veh, NDUFAF7 / RFU, SLC12A2 / Fold change vs veh, SLC12A2 / RFU, IBTK / Fold change vs veh, IBTK / RFU, ESF1 / Fold change vs veh, ESF1 / Fold change vs veh, TMEM50B / RFU, TAOK1 / Fold change vs veh, TAOK1 / RFU, ACBD3 / Fold change vs veh, ACBD3 / RFU, TMA16 / Fold change vs veh, TMA16 / RFU, RWDD3 / Fold change vs veh, RWDD3 / RFU, BCAT1 / Fold change vs veh, BCAT1 / RFU, EDEM3 / Fold change vs veh, EDEM3 / RFU, TMEM33 / Fold change vs veh, TMEM33 / RFU, WDR75 / Fold change vs veh, WDR75 / RFU, AHCTF1 / Fold change vs veh, AHCTF1 / RFU, TFRC / Fold change vs veh, TFRC / RFU, ZDHHC17 / Fold change vs veh, ZDHHC17 / RFU, NOM1 / Fold change vs veh, NOM1 / RFU, ARL8B / Fold change vs veh, ARL8B / RFU, ZBTB11 / Fold change vs veh, ZBTB11 / RFU, TAMM41 / Fold change vs veh, TAMM41 / RFU, KIAA1704 /// LOC100996395 / Fold change vs veh, KIAA1704 /// LOC100996395 / RFU, ING1 / Fold change vs veh, ING1 / RFU, TRMT61B / Fold change vs veh, TRMT61B / RFU, FUBP3 / Fold change vs veh, FUBP3 / RFU, TP53 / Fold change vs veh, TP53 / RFU, TNKS2 / Fold change vs veh, TNKS2 / RFU, ZFP14 / Fold change vs veh, ZFP14 / RFU, ACTR2 / Fold change vs veh, ACTR2 / RFU, PPP3R1 / Fold change vs veh, PPP3R1 / RFU, PIK3R1 / Fold change vs veh, PIK3R1 / RFU, HNRNPA1 / Fold change vs veh, HNRNPA1 / RFU, RNF170 / Fold change vs veh, RNF170 / RFU, ZNF28 / Fold change vs veh, ZNF28 / RFU, RNGTT / Fold change vs veh, RNGTT / RFU, OGT / Fold change vs veh, OGT / RFU, BRD1 / Fold change vs veh, BRD1 / RFU, MARS / Fold change vs veh, MARS / RFU, ZNF655 / Fold change vs veh, ZNF655 / RFU, FAHD1 / Fold change vs veh, FAHD1 / RFU, BDP1 / Fold change vs veh, BDP1 / RFU, LRRCC1 / Fold change vs veh, LRRCC1 / RFU, ARID1A / Fold change vs veh, ARID1A / RFU, ZNF146 / Fold change vs veh, ZNF146 / RFU, ZNF330 / Fold change vs veh, ZNF330 / RFU, GPN3 / Fold change vs veh, GPN3 / RFU, C9orf123 / Fold change vs veh, C9orf123 / RFU, N4BP2L2 / Fold change vs veh, N4BP2L2 / RFU, ARFIP1 / Fold change vs veh, ARFIP1 / RFU, FAM179B / Fold change vs veh, FAM179B / RFU, BCL10 / Fold change vs veh, BCL10 / RFU, UHRF1BP1L / Fold change vs veh, UHRF1BP1L / RFU, BET1 / Fold change vs veh, BET1 / RFU, CNOT2 / Fold change vs veh, CNOT2 / RFU, ZNF268 / Fold change vs veh, ZNF268 / Fold change vs veh, ZNF507 / RFU, DGCR2 / Fold change vs veh, DGCR2 / RFU, WDSUB1 / Fold change vs veh, WDSUB1 / Fold change vs veh, HSP90B1 /// MIR3652 / RFU, ADSS / Fold change vs veh, ADSS / RFU, GK / Fold change vs veh, GK / RFU, ZNF148 / Fold change vs veh, ZNF148 / RFU, TAF9 / Fold change vs veh, TAF9 / RFU, SLC1A5 / Fold change vs veh, SLC1A5 / RFU, SLMO2 / Fold change vs veh, SLMO2 / RFU, ABCC4 / Fold change vs veh, ABCC4 / RFU, LOC101060439 /// RAP1B / Fold change vs veh, LOC101060439 /// RAP1B / RFU, RFX7 / Fold change vs veh, RFX7 / RFU, GTPBP10 / Fold change vs veh, GTPBP10 / RFU, CNEP1R1 / Fold change vs veh, CNEP1R1 / RFU, BIVM-ERCC5 /// ERCC5 / Fold change vs veh, BIVM-ERCC5 /// ERCC5 / RFU, ILF3 / Fold change vs veh, ILF3 / RFU 11762660_at / Fold change /veh 11762660_at / RFU VCAN (11757783_s_at) / Fold change /veh VCAN (11757783_s_at) / RFU DDX43 (11728927_at) / Fold change /veh DDX43 (11728927_at) / RFU KRT8 (11758188_x_at) / Fold change /veh KRT8 (11758188_x_at) / RFU NKD1 (11759106_at) / Fold change /veh NKD1 (11759106_at) / RFU SRD5A1 (11742802_a_at) / Fold change /veh SRD5A1 (11742802_a_at) / RFU TPSAB1 /// TPSB2 (11721975_s_at) / Fold change /veh TPSAB1 /// TPSB2 (11721975_s_at) / RFU GSTM3 (11746129_a_at) / Fold change /veh GSTM3 (11746129_a_at) / RFU IL23R (11737362_x_at) / Fold change /veh IL23R (11737362_x_at) / RFU TMEM51 (11727254_a_at) / Fold change /veh TMEM51 (11727254_a_at) / RFU PIWIL2 (11732686_x_at) / Fold change /veh PIWIL2 (11732686_x_at) / RFU ORM1 (11744905_x_at) / Fold change /veh ORM1 (11744905_x_at) / RFU CCDC152 (11743942_at) / Fold change /veh CCDC152 (11743942_at) / RFU ECM1 (11717891_a_at) / Fold change /veh ECM1 (11717891_a_at) / RFU IL23R (11748794_a_at) / Fold change /veh IL23R (11748794_a_at) / RFU TNFAIP8L3 (11732012_x_at) / Fold change /veh TNFAIP8L3 (11732012_x_at) / RFU MBOAT4 (11741988_at) / Fold change /veh MBOAT4 (11741988_at) / RFU 11764193_at / Fold change /veh 11764193_at / RFU TMEM53 (11763286_at) / Fold change /veh TMEM53 (11763286_at) / RFU MAGEB2 (11727129_at) / Fold change /veh MAGEB2 (11727129_at) / RFU TMEM200A (11744735_a_at) / Fold change /veh TMEM200A (11744735_a_at) / RFU CCDC152 (11751479_a_at) / Fold change /veh CCDC152 (11751479_a_at) / RFU FAM211A (11726209_a_at) / Fold change /veh FAM211A (11726209_a_at) / RFU RGS16 (11746705_a_at) / Fold change /veh RGS16 (11746705_a_at) / RFU VCAN (11755009_s_at) / Fold change /veh VCAN (11755009_s_at) / RFU RHOB (11743442_s_at) / Fold change /veh RHOB (11743442_s_at) / RFU RGS16 (11720943_a_at) / Fold change /veh RGS16 (11720943_a_at) / RFU RGS16 (11720944_at) / Fold change /veh RGS16 (11720944_at) / RFU, VPS4B / Fold change vs veh, VPS4B / RFU, CREB1 / Fold change vs veh, CREB1 / RFU, DNAJC13 / Fold change vs veh, DNAJC13 / RFU, GNAQ / Fold change vs veh, GNAQ / RFU, CDK5R1 / Fold change vs veh, CDK5R1 / RFU, ZRANB3 / Fold change vs veh, ZRANB3 / RFU, CUL4A / Fold change vs veh, CUL4A / RFU, CCNY / Fold change vs veh, CCNY / RFU, UFL1 / Fold change vs veh, UFL1 / RFU, COG3 / Fold change vs veh, COG3 / RFU, DIAPH2 / Fold change vs veh, DIAPH2 / RFU, SKA2 / Fold change vs veh, SKA2 / RFU, AFF3 / Fold change vs veh, AFF3 / RFU, LMF1 / Fold change vs veh, LMF1 / RFU, IPO11 / Fold change vs veh, IPO11 / RFU, DFFB / Fold change vs veh, DFFB / RFU, FOXP1 / Fold change vs veh, FOXP1 / RFU, CARD8 / Fold change vs veh, CARD8 / RFU, STRN3 / Fold change vs veh, STRN3 / RFU, ADK / Fold change vs veh, ADK / RFU, RASSF2 / Fold change vs veh, RASSF2 / RFU, WIPF1 / Fold change vs veh, WIPF1 / RFU, LARP1B / Fold change vs veh, LARP1B / RFU, RASA1 / Fold change vs veh, RASA1 / RFU, RB1 / Fold change vs veh, RB1 / RFU, PPFIA1 / Fold change vs veh, PPFIA1 / RFU, MAT2A / Fold change vs veh, MAT2A / RFU, CCT5 / Fold change vs veh, CCT5 / RFU, WDR92 / Fold change vs veh, WDR92 / RFU, CUX1 / Fold change vs veh, CUX1 / RFU, TTC7A / Fold change vs veh, TTC7A / RFU, TMEM135 / Fold change vs veh, TMEM135 / RFU, DEPTOR / Fold change vs veh, DEPTOR / RFU, CPM / Fold change vs veh, CPM / RFU, DNAJB6 / Fold change vs veh, DNAJB6 / RFU, CACNA2D3 / Fold change vs veh, CACNA2D3 / RFU, DTX4 / Fold change vs veh, DTX4 / RFU, TFCP2 / Fold change vs veh, TFCP2 / RFU, GMCL1 /// GMCL1P1 / Fold change vs veh, GMCL1 /// GMCL1P1 / RFU, AEBP2 / Fold change vs veh, AEBP2 / RFU, SNHG1 /// SNORD22 /// SNORD25 /// SNORD26 /// SNORD27 /// SNORD28 /// SNORD29 /// SNORD31 / Fold change vs veh, SNHG1 /// SNORD22 /// SNORD25 /// SNORD26 /// SNORD27 /// SNORD28 /// SNORD29 /// SNORD31 / Fold change (Aza/veh), C12orf56 (ProbeSet 11735607_a_at) / Fold change (ACY-1035/veh), C12orf56 (ProbeSet 11735607_a_at) / Fold change (Aza/veh), FGFR1OP (ProbeSet 11751329_s_at) / Fold change (ACY-1035/veh), FGFR1OP (ProbeSet 11751329_s_at) / Fold change (Aza/veh), VPS36 (ProbeSet 11739960_a_at) / Fold change (ACY-1035/veh), VPS36 (ProbeSet 11739960_a_at) / RFU SYPL1 (11715823_x_at) / Fold change /veh SYPL1 (11715823_x_at) / RFU IGFBP7 (11715501_s_at) / Fold change /veh IGFBP7 (11715501_s_at) / RFU REEP3 (11722064_at) / Fold change /veh REEP3 (11722064_at) / RFU IGLL1 (11728026_x_at) / Fold change /veh IGLL1 (11728026_x_at): dose or concentration left out as unconfirmed
Settings: MV-4-11 cells, 48 hours

Structure (SMILES): Nc1ccc(-c2cccs2)cc1NC(=O)c1ccc2c(c1)cc(C1CC1)n2CCN1CCOCC1 [ACY-1035]
- RFU FAM174B (11720279_a_at): 24.40 RFU

— paper PMC5218480 (PLoS ONE, 2017)
